The values below come from US8129417B2, “Substituted octahydrocyclopenta[C]pyrrol-4-amines as calcium channel blockers” (Abbott Laboratories, priority 2008, dated 2012).

The term pIC50 denotes −log10 of the IC50, conventionally taken in molar units. By inhibition is commonly meant how much of the control response was suppressed.

Each structure is given as a SMILES string. pIC50: −log10 of the molar value.

Sequence of human Cav2.2 (Q00975 whole entry): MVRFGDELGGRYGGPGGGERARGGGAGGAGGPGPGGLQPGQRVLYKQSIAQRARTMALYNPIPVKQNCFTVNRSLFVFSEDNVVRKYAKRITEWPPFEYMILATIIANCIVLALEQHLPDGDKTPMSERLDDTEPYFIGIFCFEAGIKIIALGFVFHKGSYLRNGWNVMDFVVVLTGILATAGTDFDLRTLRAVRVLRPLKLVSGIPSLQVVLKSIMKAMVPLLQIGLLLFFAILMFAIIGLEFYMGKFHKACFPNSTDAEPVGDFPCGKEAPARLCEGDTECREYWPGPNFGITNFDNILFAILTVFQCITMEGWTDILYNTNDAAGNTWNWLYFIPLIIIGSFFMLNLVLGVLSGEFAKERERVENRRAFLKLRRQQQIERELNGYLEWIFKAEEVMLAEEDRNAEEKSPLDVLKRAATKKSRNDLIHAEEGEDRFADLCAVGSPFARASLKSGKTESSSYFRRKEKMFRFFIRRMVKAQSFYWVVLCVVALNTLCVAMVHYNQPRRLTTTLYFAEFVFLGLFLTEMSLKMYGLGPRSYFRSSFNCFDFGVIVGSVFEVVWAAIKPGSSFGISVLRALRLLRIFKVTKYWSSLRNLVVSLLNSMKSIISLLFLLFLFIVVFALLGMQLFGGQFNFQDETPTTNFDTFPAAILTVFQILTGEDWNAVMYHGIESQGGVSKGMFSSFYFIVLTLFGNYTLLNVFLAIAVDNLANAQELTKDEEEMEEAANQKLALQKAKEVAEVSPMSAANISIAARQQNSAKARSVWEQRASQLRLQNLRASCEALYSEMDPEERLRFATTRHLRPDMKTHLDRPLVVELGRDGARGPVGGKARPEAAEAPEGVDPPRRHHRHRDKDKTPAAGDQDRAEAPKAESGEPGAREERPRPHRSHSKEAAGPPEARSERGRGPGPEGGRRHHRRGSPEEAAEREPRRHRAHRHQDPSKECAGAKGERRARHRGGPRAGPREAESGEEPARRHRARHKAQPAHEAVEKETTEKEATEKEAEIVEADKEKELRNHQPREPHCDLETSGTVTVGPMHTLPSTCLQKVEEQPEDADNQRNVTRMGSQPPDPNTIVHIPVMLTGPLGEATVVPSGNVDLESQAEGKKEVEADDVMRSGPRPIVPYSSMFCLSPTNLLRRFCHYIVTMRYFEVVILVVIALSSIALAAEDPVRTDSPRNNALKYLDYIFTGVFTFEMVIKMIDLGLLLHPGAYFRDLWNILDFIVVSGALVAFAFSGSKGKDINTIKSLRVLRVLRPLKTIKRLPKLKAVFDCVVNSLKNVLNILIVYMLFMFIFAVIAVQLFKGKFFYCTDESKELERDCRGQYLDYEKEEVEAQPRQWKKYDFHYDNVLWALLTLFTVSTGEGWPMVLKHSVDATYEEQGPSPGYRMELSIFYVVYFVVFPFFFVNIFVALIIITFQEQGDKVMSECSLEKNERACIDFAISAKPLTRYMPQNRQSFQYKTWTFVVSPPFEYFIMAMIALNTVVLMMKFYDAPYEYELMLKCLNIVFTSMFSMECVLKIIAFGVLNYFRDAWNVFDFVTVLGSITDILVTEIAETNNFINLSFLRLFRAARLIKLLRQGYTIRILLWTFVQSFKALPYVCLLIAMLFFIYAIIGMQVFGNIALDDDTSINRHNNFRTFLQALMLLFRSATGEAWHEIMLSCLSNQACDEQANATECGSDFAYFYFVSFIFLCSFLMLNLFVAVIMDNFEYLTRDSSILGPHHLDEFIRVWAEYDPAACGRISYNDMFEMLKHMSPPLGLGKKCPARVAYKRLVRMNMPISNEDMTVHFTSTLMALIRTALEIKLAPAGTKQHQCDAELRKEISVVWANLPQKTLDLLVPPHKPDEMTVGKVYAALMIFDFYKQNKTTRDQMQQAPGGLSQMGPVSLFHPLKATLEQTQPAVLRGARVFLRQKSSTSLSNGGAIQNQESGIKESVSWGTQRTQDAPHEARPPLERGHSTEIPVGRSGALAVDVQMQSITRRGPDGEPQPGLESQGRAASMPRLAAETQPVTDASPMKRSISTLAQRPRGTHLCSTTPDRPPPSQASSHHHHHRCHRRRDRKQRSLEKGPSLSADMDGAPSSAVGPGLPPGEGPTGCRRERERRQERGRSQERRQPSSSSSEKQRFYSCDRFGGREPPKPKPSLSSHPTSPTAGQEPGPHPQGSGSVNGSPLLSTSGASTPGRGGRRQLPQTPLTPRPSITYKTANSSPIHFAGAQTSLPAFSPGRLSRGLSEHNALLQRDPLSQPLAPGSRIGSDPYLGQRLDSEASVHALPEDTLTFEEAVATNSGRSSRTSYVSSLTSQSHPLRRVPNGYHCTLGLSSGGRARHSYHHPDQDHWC
Sequence of human Cav2.2 (P54289 25-946 partner limits assumed): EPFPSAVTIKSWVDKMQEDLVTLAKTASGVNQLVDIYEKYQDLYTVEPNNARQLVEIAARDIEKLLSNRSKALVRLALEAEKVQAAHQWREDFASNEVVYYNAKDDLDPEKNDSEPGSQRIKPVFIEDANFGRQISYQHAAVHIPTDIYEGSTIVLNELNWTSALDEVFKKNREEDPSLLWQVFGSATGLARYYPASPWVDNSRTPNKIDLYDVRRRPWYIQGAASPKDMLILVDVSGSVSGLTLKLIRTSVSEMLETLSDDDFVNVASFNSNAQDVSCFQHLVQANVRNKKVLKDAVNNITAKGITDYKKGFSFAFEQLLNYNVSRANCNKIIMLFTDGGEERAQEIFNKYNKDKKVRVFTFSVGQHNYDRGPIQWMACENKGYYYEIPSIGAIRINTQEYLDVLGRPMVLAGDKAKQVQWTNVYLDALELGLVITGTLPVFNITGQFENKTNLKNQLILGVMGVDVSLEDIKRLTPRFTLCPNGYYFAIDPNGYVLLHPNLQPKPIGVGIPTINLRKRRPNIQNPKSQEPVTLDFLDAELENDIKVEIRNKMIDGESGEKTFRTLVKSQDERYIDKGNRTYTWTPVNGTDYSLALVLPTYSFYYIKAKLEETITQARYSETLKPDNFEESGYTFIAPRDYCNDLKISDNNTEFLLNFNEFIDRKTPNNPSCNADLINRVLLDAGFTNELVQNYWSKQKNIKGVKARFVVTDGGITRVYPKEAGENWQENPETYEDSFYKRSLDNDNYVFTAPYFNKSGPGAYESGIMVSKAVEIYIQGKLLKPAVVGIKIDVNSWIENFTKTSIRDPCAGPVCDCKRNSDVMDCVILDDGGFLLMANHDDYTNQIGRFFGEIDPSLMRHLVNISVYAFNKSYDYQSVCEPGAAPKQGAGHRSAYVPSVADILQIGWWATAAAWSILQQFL
Sequence of human Cav2.2 (P54289 947-1103 partner limits assumed): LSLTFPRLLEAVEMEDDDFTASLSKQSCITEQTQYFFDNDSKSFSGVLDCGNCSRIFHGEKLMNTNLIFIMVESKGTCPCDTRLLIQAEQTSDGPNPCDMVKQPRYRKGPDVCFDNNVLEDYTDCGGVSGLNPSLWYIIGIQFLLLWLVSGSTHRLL
Sequence of human Cav2.2 (P54284 whole entry partner): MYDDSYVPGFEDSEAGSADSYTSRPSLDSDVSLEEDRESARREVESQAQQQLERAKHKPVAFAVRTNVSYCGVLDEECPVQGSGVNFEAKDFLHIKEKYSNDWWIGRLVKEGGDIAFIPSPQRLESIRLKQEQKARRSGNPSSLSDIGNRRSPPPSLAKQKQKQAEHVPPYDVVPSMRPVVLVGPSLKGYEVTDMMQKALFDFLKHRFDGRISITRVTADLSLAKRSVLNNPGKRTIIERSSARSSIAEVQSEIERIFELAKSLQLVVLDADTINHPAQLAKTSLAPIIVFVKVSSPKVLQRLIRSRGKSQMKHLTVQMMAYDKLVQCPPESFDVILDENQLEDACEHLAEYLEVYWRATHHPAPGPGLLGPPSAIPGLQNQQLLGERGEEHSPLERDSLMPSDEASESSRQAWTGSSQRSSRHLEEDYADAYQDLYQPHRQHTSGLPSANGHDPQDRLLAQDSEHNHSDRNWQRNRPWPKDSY

The target in one assay is human Cav2.2 (Homo sapiens, UniProt Q00975). Put plainly: Assessment of calcium channel activity using FLIPR (Ca2+ influx in IMR32 cells). Format: cell-based. The note with it: 3 minute pre-incubation with compound (*), 2 μM nifedipine, depolarized with 80 mM KCl. The protocol:
(i) In Vitro Methods—Assessment of Calcium Channel Activity Using FLIPR:
The IMR32 cells were maintained in MEM media containing 10% (v/v) FBS, 1% (v/v) antibiotic/antimitotic, 1% (v/v) sodium pyruvate and 1% (v/v) MEM NEAA. Following dissociation in 0.05% (v/v) trypsin/EDTA, cells were seeded into black 1×96-well plates (Corning Cellbind) at a density of 1-1.2×10^5 cells/well and incubated in the maintenance media above for 48 hours at 37° C. […] To determine the IC50 values, the percent inhibition of the compound at each concentration was determined relative to the activity in the absence of inhibitor, and data was fitted using non-linear regression sigmoidal dose response curve analysis with GraphPad Prism®.
In the case of `O=C(N[C@@H]1CC[C@H]2CNC[C@H]21)C(C1CCCCC1)C1CCCCC1` [Example 74, 2,2-dicyclohexyl-N-[(3aS,4R,6aR)-octahydrocyclopenta[c]pyrrol-4-yl]acetamide], the pIC50 was 4.95. With `COc1ccc(CN2C[C@H]3CC[C@H](NC(=O)C(c4ccccc4)C(C)C)[C@H]3C2)cc1` (stereo partly drawn) [Example 96, N-[(3aR,4S,6aS)-2-(4-methoxybenzyl)octahydrocyclopenta[c]pyrrol-4-yl]-3-methyl-2-phenylbutanamide], the pIC50 is 5.62. For `CC(C)C(C(=O)N[C@H]1CC[C@@H]2CN(Cc3cccc(C#N)c3)C[C@@H]21)c1ccccc1` (stereo partly drawn) [Example 97, N-[(3aR,4S,6aS)-2-(3-cyanobenzyl)octahydrocyclopenta[c]pyrrol-4-yl]-3-methyl-2-phenylbutanamide], the pIC50 was 5.28. For the compound `CC(C)C(C(=O)N[C@H]1CC[C@@H]2CN(Cc3ccc(C(F)(F)F)cc3)C[C@@H]21)c1ccccc1` (stereo partly drawn) [Example 98, 3-methyl-2-phenyl-N-{(3aR,4S,6aS)-2-[4-(trifluoromethyl)benzyl]octahydrocyclopenta[c]pyrrol-4-yl}butanamide], the pIC50 was 5.31.

In the case of `CC(C)C(C(=O)N[C@H]1CC[C@@H]2CN(Cc3ccccc3C(F)(F)F)C[C@@H]21)c1ccccc1` (stereo partly drawn) [Example 99, 3-methyl-2-phenyl-N-{(3aR,4S,6aS)-2-[2-(trifluoromethyl)benzyl]octahydrocyclopenta[c]pyrrol-4-yl}butanamide], the negative-log IC50 (pIC50) is 5.32.

With `CC(C)C(C(=O)N[C@H]1CC[C@@H]2CN(Cc3ccc(F)c(C(F)(F)F)c3)C[C@@H]21)c1ccccc1` (stereo partly drawn) [Example 100, N-{(3aR,4S,6aS)-2-[4-fluoro-3-(trifluoromethyl)benzyl]octahydrocyclopenta[c]pyrrol-4-yl}-3-methyl-2-phenylbutanamide], the negative-log IC50 (pIC50) was 5.38. For the compound `CC(C)C(C(=O)N[C@H]1CC[C@@H]2CN(Cc3ccc(C(F)(F)F)c(F)c3)C[C@@H]21)c1ccccc1` (stereo partly drawn) [Example 101, N-{(3aR,4S,6aS)-2-[3-fluoro-4-(trifluoromethyl)benzyl]octahydrocyclopenta[c]pyrrol-4-yl}-3-methyl-2-phenylbutanamide], the pIC50 was 5.33. For the compound `CC(C)C(C(=O)N[C@H]1CC[C@@H]2CN(Cc3ccncc3)C[C@@H]21)c1ccccc1` (stereo partly drawn) [Example 103, 3-methyl-2-phenyl-N-[(3aR,4S,6aS)-2-(pyridin-4-ylmethyl)octahydrocyclopenta[c]pyrrol-4-yl]butanamide], the pIC50 is 4.51.

Consider `CC(C)C(C(=O)N[C@H]1CC[C@@H]2CN(CCCc3ccc(C(C)(C)C)cc3)C[C@@H]21)c1ccccc1` (stereo partly drawn) [Example 106, N-{(3aR,4S,6aS)-2-[3-(4-tert-butylphenyl)propyl]octahydrocyclopenta[c]pyrrol-4-yl}-3-methyl-2-phenylbutanamide], for which the negative logarithm of the IC50 (pIC50) was 5.24. On to `Cc1ccccc1CCCN1C[C@H]2CC[C@H](NC(=O)C(c3ccccc3)C(C)C)[C@H]2C1` (stereo partly drawn) [Example 108, 3-methyl-N-{(3aR,4S,6aS)-2-[3-(2-methylphenyl)propyl]octahydrocyclopenta[c]pyrrol-4-yl}-2-phenylbutanamide], for which the pIC50 was 4.95.

In the case of `CC(C)C(C(=O)N[C@H]1CC[C@@H]2CN(CCCc3cccc(Cl)c3)C[C@@H]21)c1ccccc1` (stereo partly drawn) [Example 109, N-{(3aR,4S,6aS)-2-[3-(3-chlorophenyl)propyl]octahydrocyclopenta[c]pyrrol-4-yl}-3-methyl-2-phenylbutanamide], the pIC50 is 5.05.

Regarding `Cc1cccc(CCCN2C[C@H]3CC[C@H](NC(=O)C(c4ccccc4)C(C)C)[C@H]3C2)c1` (stereo partly drawn) [Example 110, 3-methyl-N-{(3aR,4S,6aS)-2-[3-(3-methylphenyl)propyl]octahydrocyclopenta[c]pyrrol-4-yl}-2-phenylbutanamide], the pIC50 is 5.70.

Turning to `CC(C)C(C(=O)N[C@H]1CC[C@@H]2CN(CCCc3cccc(C(F)(F)F)c3)C[C@@H]21)c1ccccc1` (stereo partly drawn) [Example 111, 3-methyl-2-phenyl-N-((3aR,4S,6aS)-2-{3-[3-(trifluoromethyl)phenyl]propyl}octahydrocyclopenta[c]pyrrol-4-yl)butanamide], the pIC50 is 5.66.

With `CC(C)C(C(=O)N[C@H]1CC[C@@H]2CN(CCCc3cccc(F)c3)C[C@@H]21)c1ccccc1` (stereo partly drawn) [Example 112, N-{(3aR,4S,6aS)-2-[3-(3-fluorophenyl)propyl]octahydrocyclopenta[c]pyrrol-4-yl}-3-methyl-2-phenylbutanamide], the pIC50 was 5.55. For the compound `CC(C)C(C(=O)N[C@H]1CC[C@@H]2CN(CCCCc3ccccc3)C[C@@H]21)c1ccccc1` (stereo partly drawn) [Example 113, 3-methyl-2-phenyl-N-[(3aR,4S,6aS)-2-(4-phenylbutyl)octahydrocyclopenta[c]pyrrol-4-yl]butanamide], the negative logarithm of the IC50 (pIC50) is 5.51.

Staying with this assay, now noted: 60 minute pre-incubation with compound, 2 μM nifedipine, depolarized with 80 mM KCl.
`O=C(N[C@H]1CC[C@H]2CN(CCCc3ccc(F)cc3)C[C@H]21)C(C1CCCCC1)C1CCCCC1` [Example 71, 2,2-dicyclohexyl-N-{(3aS,4S,6aR)-2-[3-(4-fluorophenyl)propyl]octahydrocyclopenta[c]pyrrol-4-yl}acetamide]: the negative-log IC50 (pIC50) was 5.92. With `O=C(N[C@@H]1CC[C@H]2CN(CCCCCC(c3ccc(F)cc3)c3ccc(F)cc3)C[C@H]21)C(C1CCCCC1)C1CCCCC1` [Example 78, N-{(3aS,4R,6aR)-2-[6,6-bis(4-fluorophenyl)hexyl]octahydrocyclopenta[c]pyrrol-4-yl}-2,2-dicyclohexylacetamide], the pIC50 was 6.40. On the same count and under the same terms, to `CC(C)C(C(=O)N[C@H]1CC[C@@H]2CN(CCCc3ccccc3)C[C@@H]21)c1ccccc1` (stereo partly drawn) [Example 105, 3-methyl-2-phenyl-N-[(3aR,4S,6aS)-2-(3-phenylpropyl)octahydrocyclopenta[c]pyrrol-4-yl]butanamide] belongs 5.82; to `CC(C)C(C(=O)N[C@H]1CC[C@@H]2CN(CCCc3ccc(C(F)(F)F)cc3)C[C@@H]21)c1ccccc1` (stereo partly drawn) [Example 115, 3-methyl-2-phenyl-N-((3aR,4S,6aS)-2-{3-[4-(trifluoromethyl)phenyl]propyl}octahydrocyclopenta[c]pyrrol-4-yl)butanamide], 5.92.

Regarding `O=C(N[C@H]1CC[C@H]2CN(Cc3cccc(C(F)(F)F)c3)C[C@H]21)C(O)(C1CCCCC1)C1CCCCC1` [Example 152, 2,2-dicyclohexyl-2-hydroxy-N-{(3aS,4S,6aR)-2-[3-(trifluoromethyl)benzyl]octahydrocyclopenta[c]pyrrol-4-yl}acetamide], the pIC50 was 6.10.

Still in this assay, the particulars now being: IMR-32, @ 10 μM, 3 minute pre-incubation (*), read-out: percent inhibition.
As to `CC(C)C(C(=O)N[C@H]1CC[C@@H]2CN(C)C[C@@H]21)c1ccccc1` (stereo partly drawn) [Example 84, 3-methyl-N-[(3aR,4S,6aS)-2-methyloctahydrocyclopenta[c]pyrrol-4-yl]-2-phenylbutanamide], the inhibition at 10 µM is 5.8%. On the same count and under the same terms, to `COc1cccc(CN2C[C@H]3CC[C@H](NC(=O)C(c4ccccc4)C(C)C)[C@H]3C2)c1` (stereo partly drawn) [Example 90, N-[(3aR,4S,6aS)-2-(3-methoxybenzyl)octahydrocyclopenta[c]pyrrol-4-yl]-3-methyl-2-phenylbutanamide] belongs 83%; to `CC(C)C(C(=O)N[C@H]1CC[C@@H]2CN(CCc3ccccc3)C[C@@H]21)c1ccccc1` (stereo partly drawn) [Example 104, 3-methyl-2-phenyl-N-[(3aR,4S,6aS)-2-(2-phenylethyl)octahydrocyclopenta[c]pyrrol-4-yl]butanamide], 79%.
